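Values below derive from 48-hour exposures of cells grown in 96-well plates, with endpoints linearly interpolated between the two concentrations bracketing the appropriate inhibition level. TGI marks complete inhibition of growth.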
Tests used:
Experiment in all cases: DTP human tumour cell line panel, 48 h
OVCAR-8 ovarian = test system: OVCAR-8 ovarian
HL-60(TB) leukemia = test system: HL-60(TB) leukemia
DMS 273 small cell lung = test system: DMS 273 small cell lung
HCT-116 colon = test system: HCT-116 colon
HT29 colon = test system: HT29 colon
BT-549 breast = test system: BT-549 breast
HCC-2998 colon = test system: HCC-2998 colon
UO-31 renal = test system: UO-31 renal
DMS 114 small cell lung = test system: DMS 114 small cell lung
SF-268 CNS = test system: SF-268 CNS
OVCAR-4 ovarian = test system: OVCAR-4 ovarian
M19-MEL melanoma = test system: M19-MEL melanoma
SK-OV-3 ovarian = test system: SK-OV-3 ovarian
SR leukemia = test system: SR leukemia
UACC-257 melanoma = test system: UACC-257 melanoma
TK-10 renal = test system: TK-10 renal
ACHN renal = test system: ACHN renal
SNB-78 CNS = test system: SNB-78 CNS
LXFL 529 NSCLC = test system: LXFL 529 NSCLC
XF 498 CNS = test system: XF 498 CNS
SK-MEL-5 melanoma = test system: SK-MEL-5 melanoma
MDA-MB-435 = test system: MDA-MB-435
CCRF-CEM leukemia = test system: CCRF-CEM leukemia
HOP-92 NSCLC = test system: HOP-92 NSCLC
MOLT-4 leukemia = test system: MOLT-4 leukemia
CAKI-1 renal = test system: CAKI-1 renal
SW-620 colon = test system: SW-620 colon
SK-MEL-2 melanoma = test system: SK-MEL-2 melanoma
SF-295 CNS = test system: SF-295 CNS
A498 renal = test system: A498 renal
DU-145 prostate = test system: DU-145 prostate
NCI-H460 lung = test system: NCI-H460 lung
KM12 colon = test system: KM12 colon
HS 578T breast = test system: HS 578T breast
M14 melanoma = test system: M14 melanoma
NCI-H23 lung = test system: NCI-H23 lung
DLD-1 colon = test system: DLD-1 colon
COLO 205 colon = test system: COLO 205 colon
OVCAR-3 ovarian = test system: OVCAR-3 ovarian
MALME-3M melanoma = test system: MALME-3M melanoma
RPMI-8226 leukemia = test system: RPMI-8226 leukemia
A549 NSCLC = test system: A549 NSCLC
SNB-19 CNS = test system: SNB-19 CNS
HOP-62 NSCLC = test system: HOP-62 NSCLC
SK-MEL-28 melanoma = test system: SK-MEL-28 melanoma
IGROV1 ovarian = test system: IGROV1 ovarian
786-0 renal = test system: 786-0 renal
RXF 393 renal = test system: RXF 393 renal
NCI-H226 lung = test system: NCI-H226 lung
SN12C renal = test system: SN12C renal
NCI-H522 lung = test system: NCI-H522 lung
SNB-75 CNS = test system: SNB-75 CNS
SF-539 CNS = test system: SF-539 CNS
HCT-15 colon = test system: HCT-15 colon
T-47D breast = test system: T-47D breast
MCF7 breast = test system: MCF7 breast
UACC-62 melanoma = test system: UACC-62 melanoma
OVCAR-5 ovarian = test system: OVCAR-5 ovarian
U251 CNS = test system: U251 CNS
LOX IMVI melanoma = test system: LOX IMVI melanoma
EKVX NSCLC = test system: EKVX NSCLC
KM20L2 colon = test system: KM20L2 colon
K-562 leukemia = test system: K-562 leukemia

## O=C(Nc1cccc(C(F)(F)F)c1)C(=O)C(C(=O)c1ccc2ccccc2c1)C1OC(=O)c2ccccc21 (centres undefined)
OVCAR-8 ovarian
  TGI: 35.6 µM
HL-60(TB) leukemia
  TGI: 40.9 µM
DMS 273 small cell lung
  TGI: > 100 µM
HCT-116 colon
  TGI: 21.2 µM
HT29 colon
  TGI: 38.2 µM
BT-549 breast
  TGI: 93.9 µM
HCC-2998 colon
  TGI: 23.5 µM
UO-31 renal
  TGI: 20.6 µM
DMS 114 small cell lung
  TGI: 17.1 µM
SF-268 CNS
  TGI: 49.1 µM
OVCAR-4 ovarian
  TGI: > 42.7 µM
M19-MEL melanoma
  TGI: 31.1 µM
SK-OV-3 ovarian
  TGI: > 100 µM
SR leukemia
  TGI: 16 µM
UACC-257 melanoma
  TGI: 15.9 µM
TK-10 renal
  TGI: 48 µM
ACHN renal
  TGI: 73.5 µM
SNB-78 CNS
  TGI: 26.6 µM
LXFL 529 NSCLC
  TGI: 20.8 µM
XF 498 CNS
  TGI: 12.3 µM
SK-MEL-5 melanoma
  TGI: 24.4 µM
MDA-MB-435
  TGI: > 100 µM
CCRF-CEM leukemia
  TGI: 29.1 µM
HOP-92 NSCLC
  TGI: > 100 µM
MOLT-4 leukemia
  TGI: 11.1 µM
CAKI-1 renal
  TGI: > 100 µM
SW-620 colon
  TGI: 37 µM
SK-MEL-2 melanoma
  TGI: 15.8 µM
SF-295 CNS
  TGI: 23.4 µM
A498 renal
  TGI: 20.3 µM
DU-145 prostate
  TGI: 81.2 µM
NCI-H460 lung
  TGI: 36.3 µM
KM12 colon
  TGI: 29 µM
HS 578T breast
  TGI: 45.2 µM
M14 melanoma
  TGI: 34.4 µM
NCI-H23 lung
  TGI: 17.7 µM
DLD-1 colon
  TGI: 23.4 µM
COLO 205 colon
  TGI: 38.9 µM
OVCAR-3 ovarian
  TGI: 55.6 µM
MALME-3M melanoma
  TGI: 17 µM
RPMI-8226 leukemia
  TGI: 60.6 µM
A549 NSCLC
  TGI: 78.3 µM
SNB-19 CNS
  TGI: 25.8 µM
HOP-62 NSCLC
  TGI: 36.8 µM
SK-MEL-28 melanoma
  TGI: 15.7 µM
IGROV1 ovarian
  TGI: 71.6 µM
786-0 renal
  TGI: 15.9 µM
RXF 393 renal
  TGI: 11.9 µM
NCI-H226 lung
  TGI: 11.5 µM
SN12C renal
  TGI: 36.9 µM
NCI-H522 lung
  TGI: 25.6 µM
SNB-75 CNS
  TGI: 30.6 µM
SF-539 CNS
  TGI: 10.2 µM
HCT-15 colon
  TGI: 32.2 µM
T-47D breast
  TGI: 84.8 µM
MCF7 breast
  TGI: 45.8 µM
UACC-62 melanoma
  TGI: 19.1 µM
OVCAR-5 ovarian
  TGI: 31.5 µM
U251 CNS
  TGI: 17.4 µM
LOX IMVI melanoma
  TGI: 20.7 µM
EKVX NSCLC
  TGI: 27.5 µM
KM20L2 colon
  TGI: 33.5 µM
K-562 leukemia
  TGI: > 73.7 µM

## COc1ccc2c(c1)O[C@@H]1c3ccc(OC)cc3OC[C@H]21
OVCAR-8 ovarian
  TGI: > 100 µM
HL-60(TB) leukemia
  TGI: > 100 µM
DMS 273 small cell lung
  TGI: > 100 µM
HCT-116 colon
  TGI: > 100 µM
HCC-2998 colon
  TGI: > 100 µM
UO-31 renal
  TGI: 77.6 µM
DMS 114 small cell lung
  TGI: 58.9 µM
SF-268 CNS
  TGI: > 100 µM
OVCAR-4 ovarian
  TGI: > 100 µM
M19-MEL melanoma
  TGI: > 100 µM
SK-OV-3 ovarian
  TGI: > 100 µM
SR leukemia
  TGI: 97.5 µM
TK-10 renal
  TGI: > 100 µM
ACHN renal
  TGI: > 100 µM
SNB-78 CNS
  TGI: > 100 µM
LXFL 529 NSCLC
  TGI: > 100 µM
XF 498 CNS
  TGI: > 100 µM
SK-MEL-5 melanoma
  TGI: 39.2 µM
CCRF-CEM leukemia
  TGI: 80.5 µM
HOP-92 NSCLC
  TGI: 79.7 µM
MOLT-4 leukemia
  TGI: 50.3 µM
CAKI-1 renal
  TGI: > 100 µM
SW-620 colon
  TGI: > 100 µM
SK-MEL-2 melanoma
  TGI: 89.6 µM
SF-295 CNS
  TGI: > 100 µM
NCI-H460 lung
  TGI: 82 µM
KM12 colon
  TGI: > 100 µM
M14 melanoma
  TGI: > 100 µM
NCI-H23 lung
  TGI: > 100 µM
DLD-1 colon
  TGI: > 100 µM
OVCAR-3 ovarian
  TGI: > 100 µM
MALME-3M melanoma
  TGI: > 100 µM
RPMI-8226 leukemia
  TGI: > 100 µM
A549 NSCLC
  TGI: > 100 µM
SNB-19 CNS
  TGI: > 100 µM
HOP-62 NSCLC
  TGI: > 100 µM
SK-MEL-28 melanoma
  TGI: > 100 µM
IGROV1 ovarian
  TGI: > 100 µM
786-0 renal
  TGI: 72.1 µM
RXF 393 renal
  TGI: 51 µM
NCI-H226 lung
  TGI: 69.6 µM
SN12C renal
  TGI: > 100 µM
NCI-H522 lung
  TGI: 51.6 µM
SNB-75 CNS
  TGI: 51.4 µM
SF-539 CNS
  TGI: > 100 µM
HCT-15 colon
  TGI: > 100 µM
UACC-62 melanoma
  TGI: > 100 µM
OVCAR-5 ovarian
  TGI: > 100 µM
U251 CNS
  TGI: > 100 µM
LOX IMVI melanoma
  TGI: 83.7 µM
K-562 leukemia
  TGI: 57.3 µM

From PubChem BioAssay (NCI)
